From US8877706B2, “Maytansinoid derivatives” (Bio-Thera Solutions, Ltd., Co., priority 2012, dated 2014)

Assays:
[1] = test system: tubulin; assay: HTS-Tubulin Polymerization Assay Kit, tubulin polymerization in vitro; type: biochemical; conditions: 1 μM preparations, 10 μL added to 100 μL 4 mg/ml tubulin; 405 nm, 37° C.; compared with the PBS buffer
Method: According to the instruction of kit, pre-warm the 96-well plate to 37° C. for 30 min prior to starting the assay. At the same time, the spectrophotometer (SpectraMax, Molecular Devices, USA) was set as follow: wavelength, 405 nm; temperature, 37° C.; Kinetic, 31 cycles of 1 reading per minute. Make cold G-PEM buffer (990 μL General Tubulin Buffer+10 μL GTP Stock) and keep it on ice. […] Immediately place the plate into the spectrophotometer and start recording using the kinetic setup described above. […] Nocodazole, the tubulin polymerization inhibitor, was set as a negative control. The metabolite Cys-3AA-MDC was prepared by reaction of 3AA-MDC with cysteine under the base DIEA in CH2Cl2. LC-MS (M+H^+) calc.: 964.5. found: 964.2. Rt: 12.97 min. The metabolite Lys-MCC-MDC was prepared by reaction of SMCC-MDC with lysine under the base DIEA in DMF. LC-MS (M+H^+) calc.: 1103.7. found: 1103.2. Rt: 13.00 and 13.18 min.

[2] = test system: human acute lymphoblastic leukemia line C.E.M.; conditions: cited from earlier work
[3] = versus methotrexate, daunorubicin, and vincristine; cited from earlier work
[4] = test system: EGFR positive tumor cell line A431; assay: Growth inhibition, relative cell proliferation with CCK-8, A431; type: cell-based, human; conditions: A431, 72 hours
Method: Briefly, cells were detached by using 0.25% (vol/vol) trypsin and suspended in complete medium. Aliquots of cells were plated into 96-well microdilution plates. […] After 72 hours, plates were washed twice with PBS (pH 7.5), and analyzed for relative cell proliferation with CCK-8 reagent.

[5] = test system: Raji cells; assay: Effect on the growth of Raji cells (CCK-8); conditions: 3 days
Method: Briefly, 10 thousands cells in 100 μL of DMEM:F12 (GBICO, CA) culture medium without serum were seeded into each well of a 96-well plate. Twice-fold serial dilutions of antibodies or conjugated form were prepared and each diluted antibodies were added in triplicate to the wells and the cultures were incubated at 37° C. for 3 days. The controls consisted of either medium alone or medium containing of Raji cell. After incubation, CCK-8 was added to each well and the absorbance at 450 nm of each well was determined in a Spectra Max spectrophotometer (Molecular Devices, Sunnyvale, Calif.).

Q: For COc1cc2cc(c1Cl)N(C)C(=O)C[C@H](OC(=O)[C@H](C)N(C)C(=O)CCCCCN1C(=O)C=CC1=O)[C@]1(C)OC1[C@H](C)[C@@H]1C[C@@](O)(NC(=O)O1)[C@H](OC)/C=C/C=C(\C)C2 (stereo partly shown) [3AA-MDC, N2′-deacetyl-N2′-(6-maleimido-1-oxo-hexyl)maytansine], which “inhibition of tubulin polymerization” value [1] is on record?
A: significantly inhibited the tubulin polymerization

Q: With CN[C@@H](C)C(=O)OC1CC(=O)N(C)c2cc(cc(OC)c2Cl)C/C(C)=C/C=C/C(OC)C2(O)CC(OC(=O)N2)C(C)C2OC12C (stereo partly shown) [Cys-3AA-MDC] as the compound, how does the “inhibition of tubulin polymerization” value [1] read?
A: significantly inhibited the tubulin polymerization

Q: Which “inhibition of tubulin polymerization” value [1] does the source give for COc1cc2cc(c1Cl)N(C)C(=O)C[C@H](OC(=O)[C@H](C)N(C)C(=O)CCSC1CC(=O)N(CC3CCC(C(=O)NCCCC[C@H](N)C(=O)O)CC3)C1=O)[C@]1(C)O[C@H]1[C@H](C)[C@@H]1C[C@@](O)(NC(=O)O1)[C@H](OC)/C=C/C=C(\C)C2 (stereo partly shown) [Lys-mcc-MDC] here?
A: significantly inhibited the tubulin polymerization

Q: What does the source list for COc1cc2cc(c1Cl)N(C)C(=O)C[C@H](OC(=O)[C@H](C)N(C)C(C)=O)[C@]1(C)O[C@H]1[C@H](C)[C@@H]1C[C@@](O)(NC(=O)O1)[C@H](OC)/C=C/C=C(\C)C2 [Maytansine]?
A: concentration inhibiting C.E.M. line (as low as) [2]: 10^−7 μg/mL; fold more cytotoxic than conventional chemotherapeutic agents [3]: 100- to 1000 fold

Q: With “Bat1206: monoclonal antibody (rituximab) binding the extracellular domain of CD20” as the compound, how does the “inhibition of A431 cell proliferation” value [4] read?
A: had no effects on A431 cells

Q: And the “inhibition of CD20 positive cell growth” value [5]?
A: inhibitory effects
